Data reported in the supplement of paper PMC10307832.

compound: C1=CC2=NC=CN=C2C=C1/C=C/3\C(=O)NC(=O)S3 + CC1(C)CCC(c2ccc(Cl)cc2)=C(CN2CCN(c3ccc(C(=O)NS(=O)(=O)c4ccc(N[C@H](CCN5CCOCC5)CSc5ccccc5)c(S(=O)(=O)C(F)(F)F)c4)cc3)CC2)C1 [Navitoclax] (partner 0.5 µM); test: relative viability (nuclei count vs DMSO), 5 days (fraction); higher = more cells survive; conditions: first compound 2 µM
Procedure, shortened: (§1)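 A single step with final 0.05% Triton X-100, 1% formaldehyde and 1 ug/ml Hoechst fixed the cells and stained nuclei 5 days after treatment. Lung cancer cell lines in 1536-well plates had been treated by pin tool the day after seeding with one drug alone or a fixed anchor-drug dose plus five library-drug doses (not always all listed) in √10 steps, and nuclei were counted on 4× images. Relative viability is the ratio of nuclei in treated wells to nuclei in vehicle wells, taken as the median of duplicate plates.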

Cell Line | relative viability
HCC-366 | 0.897
NCI-H1666 | 0.919
NCI-H596 | 0.951
LK-2 | 0.548
NCI-H2087 | 0.96
SK-MES-1 | 1.23
H3255 | 0.498
IA-LM | 0.845
HCC-44 | 0.892
A549 | 1.11
NCI-H1299 | 1.06
NCI-H1792 | 0.401

compound: CCN1CCN(c2ccc(Nc3cc(N(C)C(=O)Nc4c(Cl)c(OC)cc(OC)c4Cl)ncn3)cc2)CC1 [BGJ398] + Nc1nc2[nH]cc(CCc3ccc(C(=O)N[C@@H](CCC(=O)O)C(=O)O)cc3)c2c(=O)[nH]1 [Pemetrexed] (partner 0.2 µM); test: as above; conditions: first compound 0.01 µM
Procedure, shortened: as §1

Cell Line | relative viability
NCI-H522 | 0.987
NCI-H1650 | 0.391
NCI-H1993 | 0.559
SW 1573 | 0.817
NCI-H838 | 0.227
LCLC-103H | 0.459
NCI-H520 | 0.691
NCI-H2126 | 0.724
EMC-BAC-2 | 0.432
NCI-H2085 | 0.927
HCC-366 | 0.161
NCI-H1666 | 0.919
NCI-H596 | 0.424
LK-2 | 0.213
NCI-H2087 | 0.644
NCI-H2342 | 0.742
SK-MES-1 | 0.84
H3255 | 0.608
HCC-44 | 0.6
SW 900 | 0.471
NCI-H1648 | 0.85
NCI-H661 | 0.912
NCI-H1792 | 0.723
NCI-H1563 | 0.749
NCI-H358 | 0.173
NCI-H650 | 0.988

same assay, conditions: first compound 0.03162 µM

Cell Line | relative viability
NCI-H522 | 0.896
NCI-H1650 | 0.361
NCI-H1993 | 0.543
SW 1573 | 0.833
NCI-H838 | 0.243
LCLC-103H | 0.503
NCI-H520 | 0.532
NCI-H2126 | 0.717
EMC-BAC-2 | 0.483
NCI-H2085 | 0.845
HCC-366 | 0.168
NCI-H1666 | 0.935
NCI-H596 | 0.476
LK-2 | 0.194
NCI-H2087 | 0.606
NCI-H2342 | 0.775
SK-MES-1 | 0.999
H3255 | 0.434
HCC-44 | 0.67
SW 900 | 0.43
NCI-H661 | 0.877
NCI-H1792 | 0.791
NCI-H1563 | 0.968
NCI-H358 | 0.167
NCI-H650 | 0.931

same assay, conditions: first compound 0.1 µM

Cell Line | relative viability
NCI-H522 | 0.876
NCI-H1650 | 0.354
NCI-H1993 | 0.575
SW 1573 | 0.83
NCI-H838 | 0.217
LCLC-103H | 0.401
NCI-H520 | 0.531
NCI-H2126 | 0.689
EMC-BAC-2 | 0.477
NCI-H2085 | 0.885
HCC-366 | 0.163
NCI-H1666 | 0.8
NCI-H596 | 0.439
LK-2 | 0.114
NCI-H2087 | 0.671
NCI-H2342 | 0.801
SK-MES-1 | 0.888
H3255 | 0.604
HCC-44 | 0.656
SW 900 | 0.469
NCI-H1648 | 0.821
NCI-H661 | 0.961
NCI-H1792 | 0.831
NCI-H1563 | 0.754
NCI-H358 | 0.199
NCI-H650 | 0.995

same assay, conditions: first compound 0.3162 µM

Cell Line | relative viability
NCI-H522 | 0.995
NCI-H1650 | 0.295
NCI-H1993 | 0.572
SW 1573 | 0.748
NCI-H838 | 0.237
LCLC-103H | 0.494
NCI-H520 | 0.341
NCI-H2126 | 0.674
EMC-BAC-2 | 0.477
NCI-H2085 | 0.978
HCC-366 | 0.172
NCI-H1666 | 0.929
NCI-H596 | 0.477
LK-2 | 0.157
NCI-H2087 | 0.699
NCI-H2342 | 0.773
SK-MES-1 | 1.02
H3255 | 0.509
HCC-44 | 0.649
SW 900 | 0.348
NCI-H1648 | 0.896
NCI-H661 | 0.977
NCI-H1792 | 0.743
NCI-H1563 | 0.58
NCI-H358 | 0.17
NCI-H650 | 0.956

same assay, conditions: first compound 1 µM

Cell Line | relative viability
NCI-H522 | 0.856
NCI-H1650 | 0.319
NCI-H1993 | 0.549
SW 1573 | 0.944
NCI-H838 | 0.23
LCLC-103H | 0.541
NCI-H520 | 0.311
NCI-H2126 | 0.684
EMC-BAC-2 | 0.471
NCI-H2085 | 1.04
HCC-366 | 0.132
NCI-H1666 | 0.737
NCI-H596 | 0.431
LK-2 | 0.12
NCI-H2087 | 0.678
NCI-H2342 | 0.755
SK-MES-1 | 0.898
H3255 | 0.629
HCC-44 | 0.654
SW 900 | 0.256
NCI-H1648 | 0.651
NCI-H661 | 0.912
NCI-H1792 | 0.749
NCI-H1563 | 0.433
NCI-H358 | 0.188
NCI-H650 | 0.974

compound: CCN1CCN(c2ccc(Nc3cc(N(C)C(=O)Nc4c(Cl)c(OC)cc(OC)c4Cl)ncn3)cc2)CC1 [BGJ398] + CC1(C)CCC(c2ccc(Cl)cc2)=C(CN2CCN(c3ccc(C(=O)NS(=O)(=O)c4ccc(N[C@H](CCN5CCOCC5)CSc5ccccc5)c(S(=O)(=O)C(F)(F)F)c4)cc3)CC2)C1 [Navitoclax] (partner 0.5 µM); test: as above; conditions: first compound 0.01 µM
Procedure, shortened: as §1

Cell Line | relative viability
NCI-H727 | 0.487
NCI-H1650 | 0.859
EBC-1 | 0.467
NCI-H1703 | 0.823
NCI-H1993 | 1.02
SW 1573 | 0.82
NCI-H838 | 1.08
NCI-H520 | 1.11
NCI-H2126 | 0.809
EMC-BAC-2 | 1.14
NCI-H2085 | 1.09
Calu-6 | 0.794
HCC-366 | 1.01
NCI-H1666 | 0.949
NCI-H596 | 0.96
LK-2 | 0.72
NCI-H2087 | 0.847
SK-MES-1 | 1.27
H3255 | 0.477
IA-LM | 0.614
HCC-44 | 0.797
A549 | 1.14
NCI-H1299 | 1.06
NCI-H1792 | 0.659

same assay, conditions: first compound 0.03162 µM

Cell Line | relative viability
NCI-H727 | 0.485
NCI-H1650 | 1.04
EBC-1 | 0.526
NCI-H1703 | 1.39
NCI-H1993 | 0.836
SW 1573 | 1.22
NCI-H838 | 1.11
NCI-H520 | 1.04
NCI-H2126 | 0.831
EMC-BAC-2 | 1.16
NCI-H2085 | 1.13
Calu-6 | 0.838
HCC-366 | 1.18
NCI-H1666 | 1.01
NCI-H596 | 0.645
LK-2 | 0.733
NCI-H2087 | 0.973
SK-MES-1 | 1.32
H3255 | 0.161
IA-LM | 0.798
HCC-44 | 0.91
A549 | 1.18
NCI-H1299 | 1.06
NCI-H1792 | 0.561

same assay, conditions: first compound 0.1 µM

Cell Line | relative viability
NCI-H727 | 0.337
NCI-H1650 | 0.649
EBC-1 | 0.444
NCI-H1703 | 0.989
NCI-H1993 | 0.909
SW 1573 | 1.05
NCI-H838 | 1.03
NCI-H520 | 0.833
NCI-H2126 | 0.888
EMC-BAC-2 | 1.26
NCI-H2085 | 1.15
Calu-6 | 0.796
HCC-366 | 0.995
NCI-H1666 | 0.91
NCI-H596 | 0.698
LK-2 | 0.726
NCI-H2087 | 0.83
SK-MES-1 | 1.24
H3255 | 0.614
IA-LM | 0.764
HCC-44 | 1.13
A549 | 1.23
NCI-H1299 | 1.03
NCI-H1792 | 0.642

same assay, conditions: first compound 0.3162 µM

Cell Line | relative viability
NCI-H727 | 0.547
NCI-H1650 | 0.699
EBC-1 | 0.447
NCI-H1703 | 1.14
NCI-H1993 | 1.02
SW 1573 | 0.981
NCI-H838 | 0.907
NCI-H520 | 0.633
NCI-H2126 | 0.839
EMC-BAC-2 | 1.15
NCI-H2085 | 1.23
Calu-6 | 0.788
HCC-366 | 1.02
NCI-H1666 | 0.967
NCI-H596 | 0.73
LK-2 | 0.529
NCI-H2087 | 0.974
SK-MES-1 | 1.33
H3255 | 0.408
IA-LM | 0.724
HCC-44 | 1.06
A549 | 1.21
NCI-H1299 | 1.03
NCI-H1792 | 0.601

same assay, conditions: first compound 1 µM

Cell Line | relative viability
NCI-H727 | 0.453
NCI-H1650 | 0.817
EBC-1 | 0.396
NCI-H1703 | 0.964
NCI-H1993 | 0.882
SW 1573 | 0.91
NCI-H838 | 0.917
NCI-H520 | 0.547
NCI-H2126 | 0.902
EMC-BAC-2 | 1.16
NCI-H2085 | 1.05
Calu-6 | 0.795
HCC-366 | 1.1
NCI-H1666 | 0.842
NCI-H596 | 0.614
LK-2 | 0.317
NCI-H2087 | 0.741
SK-MES-1 | 1.24
H3255 | 0.548
IA-LM | 0.917
HCC-44 | 0.866
A549 | 1.13
NCI-H1299 | 1.06
NCI-H1792 | 0.553
